Several values for one entry are separate records, joined by “and”; a condition that tells them apart may be missing. Equal entries are not always repeated. Inconclusive results and toxic doses are left out.
Tested on: P388 leukemia ip, CD2F1 mice, survival T/C
Test: NCI In Vivo Anticancer Drug Screen. Data for tumor model P388 Leukemia (intraperitoneal) in CD2F1 (CDF1) mice
Details: endpoint: median survival time, higher = longer survival
Outline: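 Mice carrying the transplanted tumor received test compound or vehicle. Survival was recorded in each group, and the value is the treated-group measurement divided by that of the vehicle-treated control group.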

[1] = dose: 100.0 mg/kg/injection, schedule: Q04DX003 (ip), vehicle: Klucel (hydroxypropylcellulose) (HPC)
[2] = dose: 200.0 mg/kg/injection, schedule: Q04DX003 (ip), vehicle: Klucel (hydroxypropylcellulose) (HPC)
[3] = dose: 400.0 mg/kg/injection, schedule: Q04DX003 (ip), vehicle: Klucel (hydroxypropylcellulose) (HPC)
[4] = dose: 60.0 mg/kg/injection, schedule: Q01DX005 (ip), vehicle: saline with Tween-80
[5] = dose: 120.0 mg/kg/injection, schedule: Q01DX005 (ip), vehicle: saline with Tween-80
[6] = dose: 50.0 mg/kg/injection, schedule: Q01DX005 (ip), vehicle: Klucel (hydroxypropylcellulose) (HPC)
[7] = dose: 100.0 mg/kg/injection, schedule: Q01DX005 (ip), vehicle: Klucel (hydroxypropylcellulose) (HPC)
[8] = dose: 200.0 mg/kg/injection, schedule: Q01DX005 (ip), vehicle: Klucel (hydroxypropylcellulose) (HPC)
[9] = dose: 6.25 mg/kg/injection, schedule: Q01DX009 (ip), vehicle: saline
[10] = dose: 12.5 mg/kg/injection, schedule: Q01DX009 (ip), vehicle: saline
[11] = dose: 25.0 mg/kg/injection, schedule: Q01DX009 (ip), vehicle: saline
[12] = dose: 50.0 mg/kg/injection, schedule: Q01DX009 (ip), vehicle: Klucel (hydroxypropylcellulose) (HPC)
[13] = dose: 100.0 mg/kg/injection, schedule: Q01DX009 (ip), vehicle: Klucel (hydroxypropylcellulose) (HPC)
[14] = dose: 200.0 mg/kg/injection, schedule: Q01DX009 (ip), vehicle: Klucel (hydroxypropylcellulose) (HPC)
[15] = dose: 50.0 mg/kg/injection, schedule: Q01DX009 (ip), vehicle: saline with Tween-80
[16] = dose: 100.0 mg/kg/injection, schedule: Q01DX009 (ip), vehicle: saline with Tween-80
[17] = dose: 200.0 mg/kg/injection, schedule: Q01DX009 (ip), vehicle: saline with Tween-80

COc1ccc(/C=C2\CCOc3ccc(C)cc3C2=O)cc1
T/C [1]: 94 % of control | T/C [2]: 96 % of control | T/C [3]: 102 % of control

COc1cc(C(Nc2ncccn2)c2cc3c(cc2OC(C)=O)OCO3)cc(OC)c1OC (centres undefined)
T/C [4]: 98 % of control | T/C [5]: 98 % of control | T/C (dose: 240.0 mg/kg/injection, schedule: Q01DX005 (ip), vehicle: saline with Tween-80): 95 % of control

O=C(/C=N/Nc1ccccc1)Nc1ccccc1C(=O)O
T/C [6]: 102 % of control | T/C [7]: 105 % of control | T/C [8]: 93 % of control

CC[C@]12CN3CCc4c([nH]c5ccccc45)[C@@](C(=O)OC)(c4cc5c(cc4OC)N(C)[C@H]4[C@@](O)(C(=O)OC)[C@H](OC(C)=O)[C@]6(CC)C=CCN7CC[C@]54[C@@H]76)CC(C3)[C@H]1O2 (some centres undefined)
T/C (dose: 0.05 mg/kg/injection, schedule: Q01DX009 (ip), vehicle: saline): 101 % of control | T/C (dose: 0.1 mg/kg/injection, schedule: Q01DX009 (ip), vehicle: saline): 104 % of control | T/C (dose: 0.2 mg/kg/injection, schedule: Q01DX009 (ip), vehicle: saline): 104 % of control | T/C (dose: 0.4 mg/kg/injection, schedule: Q01DX009 (ip), vehicle: saline): 103 % of control | T/C (dose: 0.5 mg/kg/injection, schedule: Q01DX001 (ip), vehicle: water): 104 % of control | T/C (dose: 0.75 mg/kg/injection, schedule: Q01DX009 (ip), vehicle: saline): 114 % of control | T/C (dose: 0.8 mg/kg/injection, schedule: Q01DX009 (ip), vehicle: saline): 107 % of control | T/C (dose: 1.0 mg/kg/injection, schedule: Q01DX001 (ip), vehicle: water): 95 % of control | T/C (dose: 1.6 mg/kg/injection, schedule: Q01DX009 (ip), vehicle: saline): 113 % of control | T/C (dose: 2.0 mg/kg/injection, schedule: Q01DX001 (ip), vehicle: water): 108 % of control | T/C (dose: 3.0 mg/kg/injection, schedule: Q01DX009 (ip), vehicle: saline): 117 % of control | T/C (dose: 3.2 mg/kg/injection, schedule: Q01DX009 (ip), vehicle: saline): 110 % of control | T/C (dose: 4.0 mg/kg/injection, schedule: Q01DX001 (ip), vehicle: water): 116 % of control | T/C (dose: 6.0 mg/kg/injection, schedule: Q01DX009 (ip), vehicle: saline sonified): 173 % of control | T/C (dose: 6.0 mg/kg/injection, schedule: Q01DX009 (ip), vehicle: saline): 156 % of control and 160 % of control | T/C (dose: 6.4 mg/kg/injection, schedule: Q01DX009 (ip), vehicle: saline): 120 % of control | T/C (dose: 8.0 mg/kg/injection, schedule: Q01DX001 (ip), vehicle: water): 122 % of control | T/C (dose: 12.0 mg/kg/injection, schedule: Q01DX009 (ip), vehicle: saline sonified): 121 % of control | T/C (dose: 12.0 mg/kg/injection, schedule: Q01DX009 (ip), vehicle: saline): 176 % of control and 220 % of control | T/C (dose: 24.0 mg/kg/injection, schedule: Q01DX009 (ip), vehicle: saline): 117 % of control

CCNC(=O)c1nnn2c1nc(N)c1cc(Cl)ccc12
T/C (dose: 12.5 mg/kg/injection, schedule: Q01DX005 (ip), vehicle: Klucel (hydroxypropylcellulose) (HPC)): 96 % of control | T/C (dose: 25.0 mg/kg/injection, schedule: Q01DX005 (ip), vehicle: Klucel (hydroxypropylcellulose) (HPC)): 96 % of control | T/C [6]: 95 % of control | T/C [7]: 94 % of control | T/C [8]: 88 % of control

O=c1n(-c2ccccc2)c(=O)n2n1C1C3C4C5C3C2C5(F)C41 (centres undefined)
T/C [1]: 103 % of control | T/C [2]: 104 % of control

O=C1N(Cc2ccccc2)[C@H]2CS(=O)(=O)C[C@@H]2N1Cc1ccccc1
T/C (dose: 50.0 mg/kg/injection, schedule: Q01DX005 (ip), vehicle: saline with Tween-80): 87 % of control | T/C (dose: 100.0 mg/kg/injection, schedule: Q01DX005 (ip), vehicle: saline with Tween-80): 92 % of control | T/C (dose: 200.0 mg/kg/injection, schedule: Q01DX005 (ip), vehicle: saline with Tween-80): 86 % of control

CCn1c2ccc(C(=O)CCCN3CCCCC3)cc2c2cc(C(=O)CCCN3CCCCC3)ccc21
T/C [9]: 100 % of control | T/C [10]: 103 % of control and 113 % of control and 97 % of control | T/C [11]: 102 % of control and 121 % of control and 122 % of control

O=S(=O)(NCCSSCCNS(=O)(=O)c1ccc(F)cc1)c1ccc(F)cc1
T/C [12]: 95 % of control | T/C [13]: 90 % of control | T/C [14]: 89 % of control

O=C1C=C(c2ccccc2)CS1
T/C [1]: 101 % of control | T/C [2]: 101 % of control | T/C [3]: 101 % of control

CCCCC(=O)CCCCCCCCC(O)CC(=O)OCC (centres undefined)
T/C [1]: 100 % of control | T/C [2]: 103 % of control | T/C [3]: 102 % of control

O=C(O)CC12CC3CC(CC(C3)C1)C2
T/C [12]: 102 % of control | T/C [13]: 103 % of control | T/C [14]: 102 % of control

CN(C)Cc1c(N=Nc2ccc3ccc4cccc5ccc2c3c45)[nH]c2ccccc12
T/C [15]: 103 % of control | T/C [16]: 115 % of control | T/C [17]: 115 % of control

Oc1cccc(N2CCN(c3cccc(O)c3)CC2)c1
T/C (dose: 60.0 mg/kg/injection, schedule: Q01DX005 (ip), vehicle: Klucel (hydroxypropylcellulose) (HPC)): 91 % of control | T/C (dose: 120.0 mg/kg/injection, schedule: Q01DX005 (ip), vehicle: Klucel (hydroxypropylcellulose) (HPC)): 89 % of control

COC(=O)/C=C/CNC(C)C
T/C (dose: 25.0 mg/kg/injection, schedule: Q01DX009 (ip), vehicle: water): 101 % of control | T/C (dose: 50.0 mg/kg/injection, schedule: Q01DX009 (ip), vehicle: water): 99 % of control | T/C (dose: 100.0 mg/kg/injection, schedule: Q01DX009 (ip), vehicle: water): 108 % of control | T/C (dose: 200.0 mg/kg/injection, schedule: Q01DX009 (ip), vehicle: water): 115 % of control | T/C (dose: 400.0 mg/kg/injection, schedule: Q01DX009 (ip), vehicle: water): 97 % of control

NCC1CCCCO1 (centres undefined)
T/C (dose: 50.0 mg/kg/injection, schedule: Q01DX005 (ip), vehicle: saline): 98 % of control | T/C (dose: 100.0 mg/kg/injection, schedule: Q01DX005 (ip), vehicle: saline): 99 % of control | T/C (dose: 200.0 mg/kg/injection, schedule: Q01DX005 (ip), vehicle: saline): 91 % of control

CCC1CN2CCc3cc(OC)c(OC)cc3C2CC1=O (centres undefined)
T/C [10]: 104 % of control | T/C [11]: 99 % of control | T/C (dose: 37.5 mg/kg/injection, schedule: Q04DX003 (ip), vehicle: saline with Tween-80): 101 % of control | T/C [15]: 107 % of control | T/C (dose: 50.0 mg/kg/injection, schedule: Q01DX009 (ip), vehicle: saline): 99 % of control and 103 % of control | T/C (dose: 75.0 mg/kg/injection, schedule: Q04DX003 (ip), vehicle: saline with Tween-80): 121 % of control | T/C [16]: 112 % of control | T/C (dose: 100.0 mg/kg/injection, schedule: Q01DX009 (ip), vehicle: saline): 96 % of control and 97 % of control | T/C [17]: 107 % of control | T/C (dose: 200.0 mg/kg/injection, schedule: Q01DX009 (ip), vehicle: saline): 106 % of control

C[Si](OC(=O)N(CCCl)CCCl)(c1ccccc1)c1ccccc1
T/C (dose: 3.12 mg/kg/injection, schedule: Q01DX009 (ip), vehicle: Klucel (hydroxypropylcellulose) (HPC)): 103 % of control | T/C (dose: 6.25 mg/kg/injection, schedule: Q01DX009 (ip), vehicle: Klucel (hydroxypropylcellulose) (HPC)): 106 % of control | T/C (dose: 12.5 mg/kg/injection, schedule: Q01DX009 (ip), vehicle: Klucel (hydroxypropylcellulose) (HPC)): 113 % of control

COc1ccc(C(=O)Nc2ccccc2CCC2CCCCN2C)cc1 (centres undefined)
T/C [9]: 95 % of control | T/C [10]: 95 % of control | T/C [11]: 92 % of control | T/C (dose: 25.0 mg/kg/injection, schedule: Q01DX009 (ip), vehicle: suspension in saline): 100 % of control

c1ccc(-c2ncc3n(-c4ccccc4)cnn23)cc1
T/C (dose: 100.0 mg/kg/injection, schedule: Q04DX002 (ip), vehicle: saline with Tween-80): 95 % of control | T/C (dose: 200.0 mg/kg/injection, schedule: Q04DX002 (ip), vehicle: saline with Tween-80): 86 % of control | T/C (dose: 400.0 mg/kg/injection, schedule: Q04DX002 (ip), vehicle: saline with Tween-80): 89 % of control

Cc1cc(=O)oc2c3c(c4c(c12)OC(C)(C)C=C4)OC(C)(C)C=C3
T/C [4]: 89 % of control | T/C [5]: 88 % of control

Reference: PubChem BioAssay AID330 (DTP/NCI, 2004)
